Measured values reported in patent publication US20240209027A1, “PEPTIDE AND PEPTIDE-CONTAINING COMPOSITION” (PeptiAID Inc.,, priority 2021, published 2024).
Read-outs that look alike come from different tables or passages of the source. Starred links: 1 amine or outer side, 2 acyl side, 3 side chain; linkers in the order of their positions; H or OH if unused. Positions of bridges follow the written chain, without caps; N, C: chain ends. Non-standard residues stand in square brackets, D forms with d. Residues, ends and D or L forms follow the SMILES beside them. *: point of attachment. Ala(piperidin-4-yl) = O=C([C@H](CC1CCN([*:3])CC1)N[*:1])[*:2]; Phe(4-COOH) = N[C@@H](Cc1ccc(C(=O)O)cc1)C(=O)O; Phe(4-F) = N[C@@H](Cc1ccc(F)cc1)C(=O)O; C12 diacid = O=C(O)CCCCCCCCCCC(=O)*; NMeE = CN[C@@H](CCC(=O)O)C(=O)O; Cha = N[C@@H](CC1CCCCC1)C(=O)O; Cit = NC(=O)NCCC[C@H](N)C(=O)O; NMeNle = CCCC[C@H](NC)C(=O)O; PEG2 = NCCOCCOCCC(=O)O; Aib = CC(C)(N)C(=O)O

What was measured:
[1] = biological target: spike protein of SARS-CoV-2 (GENE Accession No. YP 009724390) (Severe acute respiratory syndrome coronavirus 2, UniProt P0DTC2); experiment: Screening for target protein-binding peptides
Description: First, the spike protein of SARS-CoV-2 (GENE Accession No. YP 009724390) was set to a target and the screening method described in International Publication WO2014/119600, International Publication WO2012/033154, or International Publication WO 2007/066627 was used to discover the target protein-binding peptides.

[2] = biological target: SARS-CoV-2-derived S protein, Wuhan strain (Severe acute respiratory syndrome coronavirus 2, UniProt P0DTC2); assay type: cell-based
[3] = tested on: SARS-CoV-2 (JPN/TY/WK-521 strain); assay type: cell-based; set-up: key: the case where the peptide was found to have anti-SARS-CoV-2 activity when added at 50 nM was designated as “2”; the case where no activity was found upon the addition at 50 nM but the activity was found at 1 μM was designated as “1”; settings: peptide added at 50 nM or 1 μM
[4] = tested on: SARS-CoV2 (USA WA1/2020 strain); settings: 72 h
[5] = in vitro; settings: African green monkey
[6] = tested on: SARS-CoV-2 mouse subculture strain QHmusX; assay type: in vivo, BALB/c mice; settings: for lung histology (HE staining): day 10; for weight loss / respiratory symptoms: mouse, in vivo
[7] = tested on: SARS-CoV-2 (USA WA1/2020 strain); assay type: in vivo, Golden Syrian hamsters; settings: for Chronic active inflammation (anterior lobe): Mild / Chronic active inflammation (anterior lobe): Moderate / Chronic active inflammation (anterior lobe): Severe / Chronic active inflammation (posterior lobe): Mild / Chronic active inflammation (posterior lobe): Minor / Chronic active inflammation (posterior lobe): Moderate / Chronic active inflammation (posterior lobe): Severe: cases; for Gross findings of the lung: Mottled fading (number of animals) / Gross findings of the lung: No change (number of animals): 6 animals
[8] = tested on: SARS-CoV-2 Wuhan strain
[9] = tested on: SARS-CoV-2 Delta strain

For `C[C@H]1C(=O)N(C)[C@@H](Cc2ccccc2)C(=O)N[C@@H](CO)C(=O)N[C@@H](CC2CCCCC2)C(=O)N[C@@H](Cc2ccc(O)cc2)C(=O)N[C@@H](CO)C(=O)N[C@@H](Cc2ccc(O)cc2)C(=O)N[C@@H](Cc2ccc(O)cc2)C(=O)N[C@@H](CCCNC(=N)N)C(=O)N[C@@H](CCCNC(=N)N)C(=O)N[C@@H](CC2CCCCC2)C(=O)N[C@H](C(=O)N[C@H](CCC(=O)O)C(N)=O)CSCC(=O)N1C` [Peptide 5555_p000, MeA-MeF-S-Cha-Y-S-Y-Y-R-R-Cha-C], the “binding to the spike protein of SARS-CoV-2” value [1] was “binds to the spike protein of SARS-CoV-2”, the “Imax: % (at 500 nM)” value [2] was 100% and the Anti-SARS-CoV-2 activity [3] was 2. For the same compound, the IC50 [4] was 23.9 nM and the CC50 at 72 h [5] was over 1000 nM.

For `CCCC[C@H]1C(=O)NC(C)(C)C(=O)N[C@@H](CC2CCCCC2)C(=O)N[C@@H](Cc2ccc(F)cc2)C(=O)NC(C)(C)C(=O)N[C@@H](Cc2ccc(O)cc2)C(=O)N[C@@H](Cc2ccc(O)cc2)C(=O)N[C@@H](Cc2ccc(C(=O)O)cc2)C(=O)N[C@@H](CC2CCNCC2)C(=O)N[C@@H](CC2CCCCC2)C(=O)N[C@H](C(=O)N[C@H](CCC(=O)O)C(N)=O)CSCC(=O)N(C)[C@@H](CCC(=O)O)C(=O)N1C` [Peptide 5555_p020] ({CH2CO}-[NMeE][NMeNle][Aib][Cha][Phe(4-F)][Aib]YY[Phe(4-COOH)][Ala(piperidin-4-yl)][Cha]C[dE]-NH2; thioether N-12), the “Imax: % (at 500 nM)” value [2] was 99%, the Anti-SARS-CoV-2 activity [3] was 2 and the “lung histology (HE staining)” value ([6]; 10 mg administration group) was “mild aggregation of lymphocytes (*) was observed around blood vessels near the bronchioles in some lung lobes”. For the same compound, the “weight loss / respiratory symptoms” value [6] was “no findings suggestive of weight loss or respiratory symptoms were observed”, the IC50 [4] was 2.3 nM and the CC50 at 72 h [5] was over 1000 nM.

With `CCCC[C@H]1C(=O)NC(C)(C)C(=O)N[C@@H](CC2CCCCC2)C(=O)N[C@@H](Cc2ccc(F)cc2)C(=O)N[C@H](CC(=O)O)C(=O)N[C@@H](Cc2ccc(O)cc2)C(=O)N[C@@H](Cc2ccc(O)cc2)C(=O)N[C@@H](CCCNC(N)=O)C(=O)N[C@H](CCCCN)C(=O)N[C@@H](CC2CCCCC2)C(=O)N[C@H](C(=O)N[C@H](CCC(=O)O)C(=O)O)CSCC(=O)N(C)[C@@H](CCC(=O)O)C(=O)N1C` [Peptide 5555_p028] ({CH2CO}-[NMeE][NMeNle][Aib][Cha][Phe(4-F)][dD]YY[Cit][dK][Cha]C[dE]-OH; thioether N-12) the “Chronic active inflammation (anterior lobe): Mild” value ([7]; 1 mg/kg (n = 6)) was 5, the “Chronic active inflammation (anterior lobe): Moderate” value ([7]; 1 mg/kg (n = 6)) was 1 and the “Chronic active inflammation (anterior lobe): Severe” value ([7]; 1 mg/kg (n = 6)) was 0. For the same compound, the “Chronic active inflammation (posterior lobe): Mild” value ([7]; 1 mg/kg (n = 6)) was 5, the “Chronic active inflammation (posterior lobe): Minor” value (“Chronic active inflammation … Minor” below) ([7]; 1 mg/kg (n = 6)) was 0 and the “Chronic active inflammation (posterior lobe): Moderate” value ([7]; 1 mg/kg (n = 6)) was 1. The “Chronic active inflammation (posterior lobe): Severe” value ([7]; 1 mg/kg (n = 6)) was 0, the “body weight, Mean” value ([7]; 1 mg/kg i.p., Day 0) was 126.75 and the “body weight, Mean” value ([7]; 1 mg/kg i.p., Day 1) was 124.03. For the same compound, the “body weight, Mean” value ([7]; 1 mg/kg i.p., Day 2) was 122.3, the “body weight, Mean” value ([7]; 1 mg/kg i.p., Day 3) was 120.17 and the “body weight, Mean” value ([7]; 1 mg/kg i.p., Day 4) was 120.33. The “body weight, Mean” value ([7]; 1 mg/kg i.p., Day 5) was 120.75, the “body weight, Mean” value ([7]; 1 mg/kg i.p., Day −6) was 118.63 and the “Gross findings of the lung: Mottled fading (number of animals)” value ([7]; 1 mg/kg) was 6 number of animals. For the same compound, the “Gross findings of the lung: No change (number of animals)” value (from here on “Gross findings of the lung: No change”) ([7]; 1 mg/kg) was 0 number of animals, the “SARS-CoV-2 genome copy number in lung (RT-qPCR), Log10 of Geometric mean (copy number/gram)” value ([7]; 1 mg/kg, Day 5) was 8.15 copy number/gram and the “SARS-CoV-2 genome copy number in lung vs solvent control” value ([7]; 5 mg/kg) was “statistically significant decrease”. The “Chronic active inflammation (anterior lobe): Mild” value ([7]; 5 mg/kg (n = 6)) was 1, the “Chronic active inflammation (anterior lobe): Moderate” value ([7]; 5 mg/kg (n = 6)) was 5 and the “Chronic active inflammation (anterior lobe): Severe” value ([7]; 5 mg/kg (n = 6)) was 0. For the same compound, the “Chronic active inflammation (posterior lobe): Mild” value ([7]; 5 mg/kg (n = 6)) was 3, the “Chronic active inflammation … Minor” value ([7]; 5 mg/kg (n = 6)) was 2 and the “Chronic active inflammation (posterior lobe): Moderate” value ([7]; 5 mg/kg (n = 6)) was 1. The “Chronic active inflammation (posterior lobe): Severe” value ([7]; 5 mg/kg (n = 6)) was 0, the “Chronic active inflammation … Minor” value ([7]; 5 mg/kg (n = 6), listed as 5555_028) was “Minor lung inflammation was observed in the posterior lobe in two cases” and the “body weight, Mean” value ([7]; 5 mg/kg i.p., Day 0) was 126.52. The “body weight, Mean” value ([7]; 5 mg/kg i.p., Day 1) was 122.87, the “body weight, Mean” value ([7]; 5 mg/kg i.p., Day 2) was 120.87 and the “body weight, Mean” value ([7]; 5 mg/kg i.p., Day 3) was 120.42. For the same compound, the “body weight, Mean” value ([7]; 5 mg/kg i.p., Day 4) was 118.52, the “body weight, Mean” value ([7]; 5 mg/kg i.p., Day 5) was 119.68 and the “body weight, Mean” value ([7]; 5 mg/kg i.p., Day −6) was 118.67. The “Gross findings of the lung: Mottled fading (number of animals)” value ([7]; 5 mg/kg) was 6 number of animals, the “Gross findings of the lung: No change” value ([7]; 5 mg/kg) was 0 number of animals and the “SARS-CoV-2 genome copy number in lung (RT-qPCR), Log10 of Geometric mean (copy number/gram)” value ([7]; 5 mg/kg, Day 5) was 7.72 copy number/gram. For the same compound, the “SARS-CoV-2 genome copy number in lung vs solvent control” value ([7]; 25 mg/kg) was “decreasing trend”, the “Chronic active inflammation (anterior lobe): Mild” value ([7]; 25 mg/kg (n = 6)) was 2 and the “Chronic active inflammation (anterior lobe): Moderate” value ([7]; 25 mg/kg (n = 6)) was 4. The “Chronic active inflammation (anterior lobe): Severe” value ([7]; 25 mg/kg (n = 6)) was 0, the “Chronic active inflammation (posterior lobe): Mild” value ([7]; 25 mg/kg (n = 6)) was 6 and the “Chronic active inflammation … Minor” value ([7]; 25 mg/kg (n = 6)) was 0. For the same compound, the “Chronic active inflammation (posterior lobe): Moderate” value ([7]; 25 mg/kg (n = 6)) was 0, the “Chronic active inflammation (posterior lobe): Severe” value ([7]; 25 mg/kg (n = 6)) was 0 and the “body weight, Mean” value ([7]; 25 mg/kg i.p., Day 0) was 129.63. For the same compound, the “body weight, Mean” value ([7]; 25 mg/kg i.p., Day 1) was 126.85, the “body weight, Mean” value ([7]; 25 mg/kg i.p., Day 2) was 126.68 and the “body weight, Mean” value ([7]; 25 mg/kg i.p., Day 3) was 126.22. For the same compound, the “body weight, Mean” value ([7]; 25 mg/kg i.p., Day 4) was 124.45, the “body weight, Mean” value ([7]; 25 mg/kg i.p., Day 5) was 121.62 and the “body weight, Mean” value ([7]; 25 mg/kg i.p., Day −6) was 118.95. The “Gross findings of the lung: Mottled fading (number of animals)” value ([7]; 25 mg/kg) was 4 number of animals, the “Gross findings of the lung: No change” value ([7]; 25 mg/kg) was 2 number of animals and the “Gross findings of the lung: No change” value ([7]; 25 mg/kg, listed as 5555_028) was “no lung fading was observed in two cases”. The “SARS-CoV-2 genome copy number in lung (RT-qPCR), Log10 of Geometric mean (copy number/gram)” value ([7]; 25 mg/kg, Day 5) was 8.76 copy number/gram, the “severity of lung inflammation vs solvent control” value ([7]; 1, 5, or 25 mg/kg i.p.) was “The severity of lung inflammation was reduced” and the “weight loss vs solvent control” value ([7]; hamster, in vivo) was “the weight loss was suppressed to the same degree at any of the doses”. The “Imax: % (at 500 nM)” value [2] was 91%, the Anti-SARS-CoV-2 activity [3] was 2 and the “lung histology (HE staining)” value ([6]; 30 mg administration group) was “mild aggregation of cells (*) was observed around blood vessels in almost all lung lobes”. The “weight loss / respiratory symptoms” value [6] was “the rate of weight loss improved significantly (P<0.05) after the fourth day” and the IC50 [4] was 3.5 nM.

`CCCC[C@H]1C(=O)NC(C)(C)C(=O)N[C@@H](CC2CCCCC2)C(=O)N[C@@H](Cc2ccc(F)cc2)C(=O)N[C@H](CC(=O)O)C(=O)N[C@@H](Cc2ccc(O)cc2)C(=O)N[C@@H](Cc2ccc(O)cc2)C(=O)N[C@@H](CCCNC(N)=O)C(=O)N[C@H](CCCCN)C(=O)N[C@@H](CC2CCCCC2)C(=O)N[C@H](C(=O)N[C@H](CCC(=O)O)C(=O)NCCOCCOCCC(=O)N[C@H](CCCCNC(=O)CCCCCCCCCCC(=O)O)C(N)=O)CSCC(=O)N(C)[C@@H](CCC(=O)O)C(=O)N1C` [Peptide 5555_p227] ({CH2CO}-[NMeE][NMeNle][Aib][Cha][Phe(4-F)][dD]YY[Cit][dK][Cha]C[dE][PEG2][dK](C12 diacid)-NH2; thioether N-12) showed an IC50 [8] of 11.5 nM and an IC50 [9] of 8 nM.
